Data: patent US20240262801A1, “COMPOUNDS HAVING 5-(2-FLUORO-6-HYDROXYPHENYL)-1,2,5-THIADIAZOLIDIN-3-ONE 1,1-DIOXIDE AS INHIBITORS OF PROTEIN KINASE PHOSPHATASE ENZYMES” (Ness Therapeutics, Inc., priority 2021, published 2024)
Read-outs that look alike come from different tables or passages of the source.

Legend:
[1] = test system: B16F10 mouse melanoma cells; assay: Tumor cells B16F10 cellular growth IFNγ-induced inhibition assay (CellTiter-Glo); format: cell-based; conditions: for IC50: B16-F10, 72 h, 3 days incubation; for inhibition at 100 µM: B16-F10, B16F10, 100 μM compound
How it was run: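 Cells were seeded at 500/well in DMEM + 10% FBS and allowed to adhere overnight at 37° C, 5% CO2. Compounds at 1× final were added via medium with or without IFNγ (5 ng/ml in the dilution medium). After 3 days, CellTiter-Glo luminescence gave % growth inhibition versus the DMSO/IFNγ control, from which IC50 was derived.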

GST-tagged PTPN2 protein = target: T1, GST-tagged PTPN2 protein (Homo sapiens, UniProt P17706); assay: Primary assay of PTPN2 enzymatic activity inhibition (DiFMUP fluorescence); format: biochemical; conditions: DiFMUP substrate 2 μM, 60 min at RT
T1 construct: purchased ActiveMotif 31592
T1 sequence (P17706 with tags, fused parts or gaps): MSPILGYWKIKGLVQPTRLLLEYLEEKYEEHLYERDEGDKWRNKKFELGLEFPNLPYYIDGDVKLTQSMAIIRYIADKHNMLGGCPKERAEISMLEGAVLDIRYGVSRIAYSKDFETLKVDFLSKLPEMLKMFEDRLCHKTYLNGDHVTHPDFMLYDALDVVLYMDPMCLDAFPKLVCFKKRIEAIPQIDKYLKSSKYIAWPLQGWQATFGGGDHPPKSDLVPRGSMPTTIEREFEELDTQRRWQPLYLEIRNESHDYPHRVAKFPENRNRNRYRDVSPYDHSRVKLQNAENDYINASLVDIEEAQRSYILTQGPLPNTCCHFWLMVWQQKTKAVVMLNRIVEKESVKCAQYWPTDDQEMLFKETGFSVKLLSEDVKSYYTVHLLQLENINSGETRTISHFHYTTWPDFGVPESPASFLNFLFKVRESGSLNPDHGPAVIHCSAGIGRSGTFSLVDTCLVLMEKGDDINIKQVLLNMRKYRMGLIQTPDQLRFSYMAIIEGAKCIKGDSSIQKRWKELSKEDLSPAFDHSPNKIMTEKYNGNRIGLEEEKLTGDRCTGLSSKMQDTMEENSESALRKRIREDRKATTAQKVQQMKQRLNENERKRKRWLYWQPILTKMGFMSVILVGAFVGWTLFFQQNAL
How it was run: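 Enzyme at 0.004 ng/μL final in 50 mM HEPES pH 7.2-7.4, 2 mM EDTA, 100 mM NaCl, BSA, 6 mM DTT; compounds preincubated 10 min at RT. DiFMUP added at 2 μM final, 60 min at RT, fluorescence read at ex 360/em 450 nm. IC50 calculated from % inhibition.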

[2] = B16F10, + IFNγ, read-out: IC50 + IFNγ
[3] = B16F10, no IFNγ, read-out: IC50 no IFNγ
[4] = + IFNγ, read-out: % Growth Inhibition at 100 μM + IFNγ
[5] = no IFNγ, read-out: % Growth Inhibition at 100 μM no IFNγ

Structure (SMILES) | IC50 [1, 2] | IC50 [1, 3] | IC50 (GST-tagged PTPN2 protein) | inhibition at 100 µM [1, 4] | inhibition at 100 µM [1, 5]
O=C1CN(c2c(O)cc(-c3cccc(F)c3)cc2F)S(=O)(=O)N1 [Example 2, 5-(3,3′-difluoro-5-hydroxybiphenyl-4-yl)-1,2,5-thiadiazolidin-3-one 1,1-dioxide] | 50 to 100 µM | ≥ 100 µM | 0.1 to 0.5 µM | 50 to 75% | 10 to 50%
O=C1CN(c2c(O)cc(-c3cccc(NC4CCN(S(=O)(=O)Cc5ccccc5Cl)CC4)c3)cc2F)S(=O)(=O)N1 [Example 11, 5-[3′-({1-[(2-chlorobenzyl)sulfonyl]piperidin-4-yl}amino)-3-fluoro-5-hydroxybiphenyl-4-yl]-1,2,5-thiadiazolidin-3-one 1,1-dioxide] | 50 to 100 µM | ≥ 100 µM | 0.1 to 0.5 µM | 50 to 75% | 10 to 50%
CC(C)(C)c1ccc(C(=O)Nc2cc(O)c(N3CC(=O)NS3(=O)=O)c(F)c2)cc1 [Example 16, 4-tert-butyl-N-[4-(1,1-dioxido-4-oxo-1,2,5-thiadiazolidin-2-yl)-3-fluoro-5-hydroxyphenyl]benzamide] | ≥ 100 µM | ≥ 100 µM | 0.1 to 0.5 µM | 10 to 50% | 10 to 50%
CCOc1ccccc1-c1cc(O)c(N2CC(=O)NS2(=O)=O)c(F)c1 [Example 5, 5-(2′-ethoxy-3-fluoro-5-hydroxybiphenyl-4-yl)-1,2,5-thiadiazolidin-3-one 1,1-dioxide] | ≥ 100 µM | ≥ 100 µM | 0.1 to 0.5 µM | 50 to 75% | 10 to 50%
Cc1cccc(NC(=O)Nc2cc(O)c(N3CC(=O)NS3(=O)=O)c(F)c2)c1 [Example 42, 1-[4-(1,1-dioxido-4-oxo-1,2,5-thiadiazolidin-2-yl)-3-fluoro-5-hydroxyphenyl]-3-(3-methylphenyl)urea] | ≥ 100 µM | ≥ 100 µM | < 0.005 µM | 10 to 50% | 10 to 50%
CCCCS(=O)(=O)Nc1cc(O)c(N2CC(=O)NS2(=O)=O)c(F)c1 [Example 28, N-[4-(1,1-dioxido-4-oxo-1,2,5-thiadiazolidin-2-yl)-3-fluoro-5-hydroxyphenyl]butane-1-sulfonamide] | 50 to 100 µM | ≥ 100 µM | 0.1 to 0.5 µM | 50 to 75% | 10 to 50%
Cc1ccc(NC(=O)Nc2cc(O)c(N3CC(=O)NS3(=O)=O)c(F)c2)cc1 [Example 36, 1-[4-(1,1-dioxido-4-oxo-1,2,5-thiadiazolidin-2-yl)-3-fluoro-5-hydroxyphenyl]-3-(4-methylphenyl)urea] | 50 to 100 µM | ≥ 100 µM | < 0.005 µM | 50 to 75% | 10 to 50%
O=C1CN(c2c(O)cc(-c3ccc(F)cc3)cc2F)S(=O)(=O)N1 [Example 8, 5-(3,4′-difluoro-5-hydroxybiphenyl-4-yl)-1,2,5-thiadiazolidin-3-one 1,1-dioxide] | ≥ 100 µM | ≥ 100 µM | 0.1 to 0.5 µM | 10 to 50% | 10 to 50%
O=C1CN(c2c(O)cc(NC(=O)Nc3ccc(Cl)cc3)cc2F)S(=O)(=O)N1 [Example 47, 1-(4-chlorophenyl)-3-[4-(1,1-dioxido-4-oxo-1,2,5-thiadiazolidin-2-yl)-3-fluoro-5-hydroxyphenyl]urea] | 50 to 100 µM | ≥ 100 µM | < 0.005 µM | 50 to 75% | 10 to 50%
CC(C)(C)OC(=O)N1CCC(NC(=O)Nc2cc(O)c(N3CC(=O)NS3(=O)=O)c(F)c2)CC1 [Example 98, tert-butyl 4-[[3-fluoro-5-hydroxy-4-(1,1,4-trioxo-1,2,5-thiadiazolidin-2-yl)phenyl]carbamoyl-amino]piperidine-1-carboxylate] | ≥ 100 µM | ≥ 100 µM | 0.01 to 0.05 µM | 10 to 50% | 10 to 50%

More lines, main results first:

IC50 [1, 2] | IC50 [1, 3] | IC50 (GST-tagged PTPN2 protein) | Structure (SMILES) | inhibition at 100 µM [1, 4] | inhibition at 100 µM [1, 5]
10 to 50 µM | ≥ 100 µM | 0.01 to 0.05 µM | COc1ccc(CNC(=O)Nc2cc(O)c(N3CC(=O)NS3(=O)=O)c(F)c2)cc1 [Example 63, 1-[4-(1,1-dioxido-4-oxo-1,2,5-thiadiazolidin-2-yl)-3-fluoro-5-hydroxyphenyl]-3-(4-methoxybenzyl)urea] | 75 to 100% | 10 to 50%
10 to 50 µM | ≥ 100 µM | 0.01 to 0.05 µM | O=C1CN(c2c(O)cc(NC(=O)NCC3CNCC34CCCCC4)cc2F)S(=O)(=O)N1 (stereo not shown) [Example 100, 1-(2-azaspiro[4.5]decan-4-ylmethyl)-3-[3-fluoro-5-hydroxy-4-(1,1,4-trioxo-1,2,5-thiadiazolidin-2-yl)phenyl]urea] | 50 to 75% | 10 to 50%
10 to 50 µM | ≥ 100 µM | 0.01 to 0.05 µM | O=C1CN(c2c(O)cc(NC(=O)N[C@@H]3c4ccccc4C[C@@H]3O)cc2F)S(=O)(=O)N1 [Example 108, 1-[3-fluoro-5-hydroxy-4-(1,1,4-trioxo-1,2,5-thiadiazolidin-2-yl)phenyl]-3-[(1R,2S)-2-hydroxyindan-1-yl]urea] | 50 to 75% | 10 to 50%
< 5 µM | ≥ 100 µM | 0.005 to 0.01 µM | O=C1CN(c2c(O)cc(NC(=O)N[C@H](CO)c3ccccc3)cc2F)S(=O)(=O)N1 [Example 103, 1-[3-fluoro-5-hydroxy-4-(1,1,4-trioxo-1,2,5-thiadiazolidin-2-yl)phenyl]-3-[(1S)-2-hydroxy-1-phenylethyl]urea] | 75 to 100% | 10 to 50%
10 to 50 µM | ≥ 100 µM | 0.1 to 0.5 µM | COc1ccc(C(=O)Nc2cc(O)c(N3CC(=O)NS3(=O)=O)c(F)c2)cc1OC [Example 14, N-[4-(1,1-dioxido-4-oxo-1,2,5-thiadiazolidin-2-yl)-3-fluoro-5-hydroxyphenyl]-3,4-dimethoxybenzamide] | 50 to 75% | 10 to 50%
5 to 10 µM | ≥ 100 µM | < 0.005 µM | O=C1CN(c2c(O)cc(NC(=O)NC3CCCCC3O)cc2F)S(=O)(=O)N1 (stereo not shown) [Example 105, 1-[3-fluoro-5-hydroxy-4-(1,1,4-trioxo-1,2,5-thiadiazolidin-2-yl)phenyl]-3-(2-hydroxycyclohexyl)urea] | 75 to 100% | 10 to 50%
10 to 50 µM | ≥ 100 µM | 0.005 to 0.01 µM | CC(C)C[C@@H](CO)NC(=O)Nc1cc(O)c(N2CC(=O)NS2(=O)=O)c(F)c1 [Example 110, 1-[3-fluoro-5-hydroxy-4-(1,1,4-trioxo-1,2,5-thiadiazolidin-2-yl)phenyl]-3-[(1S)-1-(hydroxymethyl)-3-methyl-butyl]urea] | 50 to 75% | 10 to 50%
